Earlier results on two compounds are cited in patent US20250144159A1, “COMPOSITION COMPRISING A MIXTURE OF DHA AND/OR EPA AND A PHOSPHOLIPID OF PLANT ORIGIN” (POLARIS, priority 2022, published 2025).

For this data set the following is noted: oral intake; compared with DHA in triglyceride (TG) form.

On to `CC/C=C\C/C=C\C/C=C\C/C=C\C/C=C\C/C=C\CCC(=O)OC(CO)COP(=O)([O-])OCC[N+](C)(C)C` (centres unmarked) [lysoPC-DHA], for which the “cerebral capture of DHA” value was “improves”.

As for `CCC=CCC=CCC=CCC=CCC=CCC=CCCC(=O)OC(COC(C)=O)COP(=O)([O-])OCC[N+](C)(C)C` (centres unmarked) [AceDoPC], the “cerebral capture of DHA” value is listed as “improves”.
